Experimental data as given in patent EP1826201A1, “Substituted phenylpiperidine derivatives as melanocortin-4 receptor modulators” (Santhera Pharmaceuticals (Schweiz) AG, priority 2006, dated 2007).

How the values were obtained:
[1] = target: T1, hMC-4R (Homo sapiens, UniProt P32245); assay: Membrane binding assay (fluorescence polarization, competition with fluorescence labeled NDP-alpha-MSH); conditions: HEK293 cell membrane preparations expressing human melanocortin receptors; 5 h at room temperature
T1 construct: expressed in transfected cells; host or cells: HEK293

[2] = target: T1, hMC-4R; assay: Functional assay (membrane based cAMP fluorescence polarization assay, agonistic activity); assay type: biochemical; conditions: for % activation functional assay / Emax: cAMP produced compared to stimulation with NDP-alpha-MSH; for Emax: read-out: % activation functional assay; for EC50: membrane preparations from HEK293 cells expressing the human melanocortin receptors, cAMP production
Protocol: Agonistic activity of human melanocortin receptors is determined in a homogeneous membrane based assay.
Membrane preparations from HEK293 cells expressing the human melanocortin receptors are added. After a short preincubation period, an appropriate amount of ATP, GTP and the cAMP antibody is added and the plate is further incubated before the fluorescence labeled cAMP conjugate is dispensed. The plate is incubated for 2 h at 4°C before it is read on a fluorescence polarization microplate reader. The amount of cAMP produced as a response to a test compound is compared to the production of cAMP resulting from stimulation with NDP-alpha-MSH.

T1 sequence (P32245 whole entry): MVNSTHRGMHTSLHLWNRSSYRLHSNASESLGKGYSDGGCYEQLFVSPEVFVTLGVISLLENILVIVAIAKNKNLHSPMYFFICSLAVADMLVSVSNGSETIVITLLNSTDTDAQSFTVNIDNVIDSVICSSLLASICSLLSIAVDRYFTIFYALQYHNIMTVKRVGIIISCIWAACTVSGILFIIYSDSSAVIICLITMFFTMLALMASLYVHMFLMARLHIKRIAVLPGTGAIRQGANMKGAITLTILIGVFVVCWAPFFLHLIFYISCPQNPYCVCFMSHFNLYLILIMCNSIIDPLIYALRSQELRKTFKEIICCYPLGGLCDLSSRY

Row | Compound | IC50 [1] [µM] | % activation functional assay [2] | Emax [2] [%] | EC50 [2] [µM]
1 | NC(Cc1ccc(Cl)cc1Cl)C(=O)N1CCC(c2ccccc2OCCN2CCCC2)CC1 (centres unmarked) [Example 1] | 0.13 | no activation | – | –
2 | NC(Cc1ccc(Cl)cc1Cl)C(=O)N1CCC(c2ccc(F)cc2OCCN2CCCC2)CC1 (centres unmarked) [Example 2] | 0.064 | – | 22 | –
3 | NC(Cc1ccc(Cl)cc1Cl)C(=O)N1CCC(c2ccc(Cl)cc2OCCN2CCCC2)CC1 (centres unmarked) [Example 3] | 0.028 | no activation | – | –
4 | NC(Cc1ccc(Cl)cc1Cl)C(=O)N1CCC(c2cc(F)c(F)cc2OCCN2CCCC2)CC1 (centres unmarked) [Example 7] | 0.057 | – | 29 | –
5 | NC(Cc1ccc(Cl)cc1)C(=O)N1CCC(c2ccccc2OCCN2CCCC2)CC1 (centres unmarked) [Example 101] | 0.47 | – | 78 | 1.6
6 | NC(Cc1ccc(Cl)cc1)C(=O)N1CCC(c2cc(F)ccc2OCCN2CCCC2)CC1 (centres unmarked) [Example 105] | 0.26 | – | 90 | 0.57
7 | NC(Cc1ccc(Cl)cc1)C(=O)N1CCC(c2cc(Cl)ccc2OCCN2CCCC2)CC1 (centres unmarked) [Example 106] | 0.15 | – | 87 | 0.23
8 | NC(Cc1ccc(Cl)cc1)C(=O)N1CCC(c2ccc(Cl)cc2OCCCN2CCCCC2)CC1 (centres unmarked) [Example 110] | 0.19 | – | 73 | 0.28
9 | NC(Cc1ccc(Cl)cc1)C(=O)N1CCC(c2cc(F)c(F)cc2OCCN2CCCC2)CC1 (centres unmarked) [Example 111] | 0.31 | – | 75 | 0.17
10 | NC(Cc1ccc(Cl)cc1)C(=O)N1CCC(c2cc(F)c(F)cc2OCCN2CCCCC2)CC1 (centres unmarked) [Example 112] | 0.26 | – | 73 | 0.11
11 | NC(Cc1ccc(Cl)cc1)C(=O)N1CCC(c2ccccc2CCCN2CCCC2)CC1 (centres unmarked) [Example 113] | 0.79 | – | 78 | 1.1
12 | NC(Cc1ccc(Cl)cc1)C(=O)N1CCC(c2ccc(F)cc2CCCN2CCCC2)CC1 (centres unmarked) [Example 114] | 0.29 | – | 89 | 0.64
